# Test results reported in patent publication EP0049968A1, “Pharmaceutical compositions” (priority 1980, dated 1982).
# Read-outs that look alike come from different tables or passages of the source.
# Test system: highly resistant E.coli strains (producing a plasmid mediated β-lactamase)
# Experiment: MIC of compound (i) alone and in combination with compound (iii), E. coli strains
# Format: cell-based
# Conditions: for MIC: Escherichia coli, compound (i) alone
compound,measurement,setting,value
CC1(C)S[C@@H]2[C@H](NC(=O)[C@H](NC(=O)Nc3cnc(Nc4ccc(S(N)(=O)=O)cc4)nc3O)c3ccc(O)cc3)C(=O)N2[C@H]1C(=O)O [compound (i)],MIC,"read-out: MIC µg/ml compound (i) alone, Geometric mean (± 95% confidence limits), geometric mean of 11 E. coli strains",> 160 µg/mL
same,MIC,"read-out: MIC µg/ml compound (i) alone, strain E96",> 160 µg/mL
same,MIC,"read-out: MIC µg/ml compound (i) alone, strain E110",> 160 µg/mL
same,MIC,"read-out: MIC µg/ml compound (i) alone, strain E121",> 161 µg/mL
same,MIC,"read-out: MIC µg/ml compound (i) alone, strain E124",> 160 µg/mL
same,MIC,"read-out: MIC µg/ml compound (i) alone, strain JT4",> 160 µg/mL
same,MIC,"read-out: MIC µg/ml compound (i) alone, strain JT9",> 160 µg/mL
same,MIC,"read-out: MIC µg/ml compound (i) alone, strain JT39",160 µg/mL
same,MIC,"read-out: MIC µg/ml compound (i) alone, strain JT68",> 160 µg/mL
same,MIC,"read-out: MIC µg/ml compound (i) alone, strain P9",> 160 µg/mL
same,MIC,"read-out: MIC µg/ml compound (i) alone, strain P19",> 160 µg/mL
same,MIC,"read-out: MIC µg/ml compound (i) alone, strain SA15",> 160 µg/mL
same,"MIC µg/ml compound (i) compound (iii) (µg/ml) 1, Geometric mean (± 95% confidence limits)","geometric mean of 11 E. coli strains, with compound (iii) 1 µg/ml",0.80 (0.16-4.1) µg/ml
same,"MIC µg/ml compound (i) compound (iii) (µg/ml) 2, Geometric mean (± 95% confidence limits)","geometric mean of 11 E. coli strains, with compound (iii) 2 µg/ml",0.59 (0.15-2.2) µg/ml
same,"MIC µg/ml compound (i) compound (iii) (µg/ml) 5, Geometric mean (± 95% confidence limits)","geometric mean of 11 E. coli strains, with compound (iii) 5 µg/ml",0.19 (0.07-0.53) µg/ml
same,"MIC µg/ml compound (i) compound (iii) (µg/ml) 10, Geometric mean (± 95% confidence limits)","geometric mean of 11 E. coli strains, with compound (iii) 10 µg/ml",0.08 (0.02-0.30) µg/ml
same,MIC µg/ml compound (i) compound (iii) (µg/ml) 1,"strain E96, with compound (iii) 1 µg/ml",0.62 µg/mL
same,MIC µg/ml compound (i) compound (iii) (µg/ml) 2,"strain E96, with compound (iii) 2 µg/ml",0.62 µg/mL
same,MIC µg/ml compound (i) compound (iii) (µg/ml) 5,"strain E96, with compound (iii) 5 µg/ml",0.31 µg/mL
same,MIC µg/ml compound (i) compound (iii) (µg/ml) 10,"strain E96, with compound (iii) 10 µg/ml",0.31 µg/mL
same,MIC µg/ml compound (i) compound (iii) (µg/ml) 1,"strain E110, with compound (iii) 1 µg/ml",0.16 µg/mL
same,MIC µg/ml compound (i) compound (iii) (µg/ml) 2,"strain E110, with compound (iii) 2 µg/ml",0.16 µg/mL
same,MIC µg/ml compound (i) compound (iii) (µg/ml) 5,"strain E110, with compound (iii) 5 µg/ml",0.08 µg/mL
same,MIC µg/ml compound (i) compound (iii) (µg/ml) 10,"strain E110, with compound (iii) 10 µg/ml",0.02 µg/mL
same,MIC µg/ml compound (i) compound (iii) (µg/ml) 1,"strain E121, with compound (iii) 1 µg/ml",0.62 µg/mL
same,MIC µg/ml compound (i) compound (iii) (µg/ml) 2,"strain E121, with compound (iii) 2 µg/ml",0.31 µg/mL
same,MIC µg/ml compound (i) compound (iii) (µg/ml) 5,"strain E121, with compound (iii) 5 µg/ml",0.16 µg/mL
same,MIC µg/ml compound (i) compound (iii) (µg/ml) 10,"strain E121, with compound (iii) 10 µg/ml",0.08 µg/mL
same,MIC µg/ml compound (i) compound (iii) (µg/ml) 1,"strain E124, with compound (iii) 1 µg/ml",1.25 µg/mL
same,MIC µg/ml compound (i) compound (iii) (µg/ml) 2,"strain E124, with compound (iii) 2 µg/ml",0.62 µg/mL
same,MIC µg/ml compound (i) compound (iii) (µg/ml) 5,"strain E124, with compound (iii) 5 µg/ml",0.31 µg/mL
same,MIC µg/ml compound (i) compound (iii) (µg/ml) 10,"strain E124, with compound (iii) 10 µg/ml",0.16 µg/mL
same,MIC µg/ml compound (i) compound (iii) (µg/ml) 1,"strain JT4, with compound (iii) 1 µg/ml",40 µg/mL
same,MIC µg/ml compound (i) compound (iii) (µg/ml) 2,"strain JT4, with compound (iii) 2 µg/ml",20 µg/mL
same,MIC µg/ml compound (i) compound (iii) (µg/ml) 5,"strain JT4, with compound (iii) 5 µg/ml",2.5 µg/mL
same,MIC µg/ml compound (i) compound (iii) (µg/ml) 10,"strain JT4, with compound (iii) 10 µg/ml",1.25 µg/mL
same,MIC µg/ml compound (i) compound (iii) (µg/ml) 1,"strain JT9, with compound (iii) 1 µg/ml",1.25 µg/mL
same,MIC µg/ml compound (i) compound (iii) (µg/ml) 2,"strain JT9, with compound (iii) 2 µg/ml",0.62 µg/mL
same,MIC µg/ml compound (i) compound (iii) (µg/ml) 5,"strain JT9, with compound (iii) 5 µg/ml",0.08 µg/mL
same,MIC µg/ml compound (i) compound (iii) (µg/ml) 10,"strain JT9, with compound (iii) 10 µg/ml",0.08 µg/mL
same,MIC µg/ml compound (i) compound (iii) (µg/ml) 1,"strain JT39, with compound (iii) 1 µg/ml",0.16 µg/mL
same,MIC µg/ml compound (i) compound (iii) (µg/ml) 2,"strain JT39, with compound (iii) 2 µg/ml",0.16 µg/mL
same,MIC µg/ml compound (i) compound (iii) (µg/ml) 5,"strain JT39, with compound (iii) 5 µg/ml",0.08 µg/mL
same,MIC µg/ml compound (i) compound (iii) (µg/ml) 10,"strain JT39, with compound (iii) 10 µg/ml",0.02 µg/mL
same,MIC µg/ml compound (i) compound (iii) (µg/ml) 1,"strain JT68, with compound (iii) 1 µg/ml",0.16 µg/mL
same,MIC µg/ml compound (i) compound (iii) (µg/ml) 2,"strain JT68, with compound (iii) 2 µg/ml",0.31 µg/mL
same,MIC µg/ml compound (i) compound (iii) (µg/ml) 5,"strain JT68, with compound (iii) 5 µg/ml",0.16 µg/mL
same,MIC µg/ml compound (i) compound (iii) (µg/ml) 10,"strain JT68, with compound (iii) 10 µg/ml",0.08 µg/mL
same,MIC µg/ml compound (i) compound (iii) (µg/ml) 1,"strain P9, with compound (iii) 1 µg/ml",1.25 µg/mL
same,MIC µg/ml compound (i) compound (iii) (µg/ml) 2,"strain P9, with compound (iii) 2 µg/ml",0.62 µg/mL
same,MIC µg/ml compound (i) compound (iii) (µg/ml) 5,"strain P9, with compound (iii) 5 µg/ml",0.16 µg/mL
same,MIC µg/ml compound (i) compound (iii) (µg/ml) 10,"strain P9, with compound (iii) 10 µg/ml",0.08 µg/mL
same,MIC µg/ml compound (i) compound (iii) (µg/ml) 1,"strain P19, with compound (iii) 1 µg/ml",0.31 µg/mL
same,MIC µg/ml compound (i) compound (iii) (µg/ml) 2,"strain P19, with compound (iii) 2 µg/ml",0.31 µg/mL
same,MIC µg/ml compound (i) compound (iii) (µg/ml) 5,"strain P19, with compound (iii) 5 µg/ml",0.08 µg/mL
same,MIC µg/ml compound (i) compound (iii) (µg/ml) 10,"strain P19, with compound (iii) 10 µg/ml",0.02 µg/mL
same,MIC µg/ml compound (i) compound (iii) (µg/ml) 1,"strain SA15, with compound (iii) 1 µg/ml",2.5 µg/mL
same,MIC µg/ml compound (i) compound (iii) (µg/ml) 2,"strain SA15, with compound (iii) 2 µg/ml",1.25 µg/mL
same,MIC µg/ml compound (i) compound (iii) (µg/ml) 5,"strain SA15, with compound (iii) 5 µg/ml",0.31 µg/mL
same,MIC µg/ml compound (i) compound (iii) (µg/ml) 10,"strain SA15, with compound (iii) 10 µg/ml",0.08 µg/mL
